Source: US8809545B2, “Aryl pyridine as aldosterone synthase inhibitors” (Novartis AG, priority 2009, dated 2014)

Columns and labels:
[1] = biological target: T1, CYP11B1 (steroid 11 β-hydroxylase) (Homo sapiens, UniProt P15538); assay: Cortisol cell secretion in NCI-H295R cells (in vitro inhibitory activity for CYP11B1); format: cell-based; settings: compound at 1 μM
T1 construct: the NCI-H295R cells have CYP11B1 (steroid 11 β-hydroxylase); host or cells: NCI-H295R
T1 sequence (P15538 25-503): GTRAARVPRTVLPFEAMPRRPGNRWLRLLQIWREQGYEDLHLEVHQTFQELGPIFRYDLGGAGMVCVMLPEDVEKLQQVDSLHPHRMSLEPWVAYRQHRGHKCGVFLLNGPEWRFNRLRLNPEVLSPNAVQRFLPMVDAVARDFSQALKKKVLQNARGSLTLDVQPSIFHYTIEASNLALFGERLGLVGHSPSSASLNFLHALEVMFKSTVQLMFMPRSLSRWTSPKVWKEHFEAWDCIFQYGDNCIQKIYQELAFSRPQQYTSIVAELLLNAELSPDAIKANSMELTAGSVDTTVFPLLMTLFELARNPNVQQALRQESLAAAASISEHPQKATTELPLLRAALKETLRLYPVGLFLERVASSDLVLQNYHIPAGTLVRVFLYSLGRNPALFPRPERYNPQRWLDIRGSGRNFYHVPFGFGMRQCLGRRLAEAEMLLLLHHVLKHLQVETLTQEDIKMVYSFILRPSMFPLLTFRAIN
From the text: The in vitro inhibitory activities for CYP11B1 can be determined by the following assay.
The cell line NCI-H295R was originally isolated from an adrenocortical carcinoma and has been characterized in the literature through the stimulable secretion of steroid hormones and the presence of the enzymes essential for steroidogenesis. Thus, the NCI-H295R cells have CYP11B1 (steroid 11 β-hydroxylase). The cells show the physiological property of zonally undifferentiated human fetal adrenocortical cells which, however, have the capacity to produce the steroid hormones which are formed in the three, phenotypically distinguishable zones in the adult adrenal cortex.
The NCI-H295R cells (American Type Culture Collection, ATCC, Rockville, Md., USA) are grown in Dulbeoco's Modified Eagle'Ham F-12 Medium (DME/F12), which has been supplemented with Ulroser SF Serum (Soprachem, Cergy-Saint-Christophe, France), insulin, transferrin, selenite (I-T-S, Becton Dickinson Biosiences, Franklin lakes, N.J., USA) and antibiotics in 75 cm^2 cell culture vessels at 37° C. and in a 95% air-5% carbon dioxide atmosphere. The cells are subsequently transferred for colony formation into a 24-well incubation vessel. They are cultivated there in DME/F12 medium, which is now supplemented with 0.1% bovine serum instead of Ultroser SF for 24 hours. The experiment is initiated by cultivating the cells in DME/F12 medium which is supplemented with 0.1% bovine serum albumin and test compound, in the presence or absence of cell stimulants, for 72 hours. The test substance is added in a concentration range from 0.2 nanomolar to […]. Cell stimulants which can be used are angiotensin II ([…] or 100 nanomolar), potassium ions (16 millimolar), forskolin (10 micromolar) or a combination of two stimulants.
The excretion of aldosterone, cortisol, corticosterone and estradiol/estrone into the culture medium can be detected and quantified by commercially available, specific monoclonal antibodies in radioimmunoassays in accordance with the manufacturer's instructions.
(§1) Inhibition of the release of certain steroids can be used as a measure of the respective enzyme inhibition by the added test compounds. The dose-dependent inhibition of enzymatic activity by a compound is calculated by means of an inhibition plot which is characterized by an IC50.
The inhibition activity of CYP11B1 production can also be expressed in percentage inhibition (% inhibition) at a given concentration (e.g. % inhibition at 1 μM), which is the cortisol level when cell is treated with the given concentration of a compound of the invention (e.g. concentration of 1 μM) versus the cortisol excretion when cell is free of the compound of the invention. % inhibition cortisol production=[(Y′−X′)/Y′]×100 wherein X′ is the level of cortisol when the cell is treated with a compound of Formula I; and Y′ is the level of cortisol when the cell is free of compound of Formula I.

[2] = biological target: T2, aldosterone synthase (Homo sapiens, UniProt P19099); assay: Aldosterone cell secretion in Ang II-stimulated NCI-H295R cells (SPA with anti-aldosterone antibody); format: cell-based; settings: human adrenocortical carcinoma NCI-H295R cells, 1 μM Ang II, 24 h
T2 construct: host or cells: NCI-H295R
T2 sequence (P19099 25-503): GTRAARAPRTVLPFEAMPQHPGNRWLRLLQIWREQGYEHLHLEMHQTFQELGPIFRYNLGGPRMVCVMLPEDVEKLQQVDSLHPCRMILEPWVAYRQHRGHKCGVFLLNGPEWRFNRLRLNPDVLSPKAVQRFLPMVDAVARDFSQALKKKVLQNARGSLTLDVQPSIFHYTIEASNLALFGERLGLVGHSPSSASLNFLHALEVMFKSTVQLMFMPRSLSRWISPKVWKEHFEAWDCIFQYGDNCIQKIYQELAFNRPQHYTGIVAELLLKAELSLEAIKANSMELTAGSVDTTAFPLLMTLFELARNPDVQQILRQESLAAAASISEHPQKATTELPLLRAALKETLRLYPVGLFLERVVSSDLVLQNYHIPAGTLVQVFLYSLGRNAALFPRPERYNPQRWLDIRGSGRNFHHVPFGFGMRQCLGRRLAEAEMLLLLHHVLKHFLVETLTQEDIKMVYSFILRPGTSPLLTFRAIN
From the text: In particular, the aldosterone synthase inhibitory activities in vitro can be determined by the following assay.
Human adrenocortical carcinoma NCI-H295R cell line was obtained from American Type Culture Collection (Manassas, Va.). Insulin/transferrin/selenium (ITS)-A supplement (100×), DMEM/F-12, antibiotic/antimycotic (100×), and fetal bovine serum (FBS) were purchased from Invitrogen (Carlsbad, Calif.). Anti-mouse PVT scintillation proximity assay (SPA) beads and NBS 96-well plates were obtained from GE Health Sciences (Piscataway, N.J.) and Corning (Acton, Mass.), respectively. Solid black 96-well flat bottom plates were purchased from Costar (Corning, N.Y.). Aldosterone and angiotensin (Ang II) were purchased from Sigma (St. Louis, Mo.). D-[1,2,6,7-^3H(N)]aldosterone was acquired from PerkinElmer (Boston, Mass.). Nu-serum was a product of BD Biosciences (Franklin Lakes, N.J.).
On the following day, cells are rinsed with 100 μL of phosphate-buffered saline (PBS) and incubated with 100 μL of treatment medium containing 1 μM Ang II and a compound at different concentrations in quadruplicate wells at 37° C. for 24 h. At the end of incubation, 50 μL of medium is withdrawn from each well for measurement of aldosterone production by an SPA using mouse anti-aldosterone monoclonal antibodies.
Measurement of aldosterone activity can also be performed using a 96-well plate format. […] Anti-mouse PVT SPA beads (50 μL) are then added to each well and incubated overnight at room temperature prior to counting in a Microbeta plate counter. The amount of aldosterone in each sample is calculated by comparing with a standard curve generated using known quantities of the hormone.
as §1
The inhibition plot is calculated by fitting a 4-parameter logistic function to the raw data points using the least squares method. The equation of the 4-parameter logistic function is calculated as follows: Y=(d−a)/((1+(x/c)b))+a, where: a=minimum data level, b=gradient, I […], d=maximum data level, x=inhibitor concentration.

CCCC(NS(=O)(=O)CC)c1cncc(-c2ccc(C#N)c(Cl)c2)c1 (racemic) [N-(1-(5-(3-chloro-4-cyanophenyl)pyridin-3-yl)butyl)ethanesulfonamide: Racemate, N-(1-(5-(3-chloro-4-cyanophenyl)pyridin-3-yl)butyl)ethanesulfonamide]
inhibition at 1 µM ([1]; NCI-H295R): 25%
IC50 [2]: 132 nM

CCCC(NS(=O)(=O)CC)c1cncc(-c2ccc(C#N)c(Cl)c2)c1 (single isomer, unassigned) [N-(1-(5-(3-chloro-4-cyanophenyl)pyridin-3-yl)butyl)ethanesulfonamide]
inhibition at 1 µM ([1]; NCI-H295R): 26%
IC50 [2]: 89 nM

CCS(=O)(=O)NC(C)c1cncc(-c2ccc(C#N)c(Cl)c2)c1 (single isomer, unassigned) [N-(1-(5-(3-chloro-4-cyanophenyl)pyridin-3-yl)ethyl)ethanesul] [N-(1-(5-(3-chloro-4-cyanophenyl)pyridin-3-yl)ethyl)ethanesulfonamide]
Cortisol cell secretion (% inhibition @ 1 μM) [1]: 50%

CCS(=O)(=O)NC(C)c1cncc(-c2ccc(C#N)c(Cl)c2)c1 (single isomer, unassigned) [N-(1-(5-(3-chloro-4-cyanophenyl)pyridin-3-yl)ethyl)ethanesulfonamide]
inhibition at 1 µM ([1]; NCI-H295R): 53%
IC50 ([2]; Enantiomer 1): 49 nM
IC50 ([2]; Enantiomer 2): 74 nM

CCS(=O)(=O)NC(C)c1cncc(-c2ccc(C#N)c(OC)c2)c1 (single isomer, unassigned) [N-(1-(5-(4-cyano-3-methoxyphenyl)pyridin-3-yl)ethyl)ethanesu] [N-(1-(5-(4-cyano-3-methoxyphenyl)pyridin-3-yl)ethyl)ethanesulfonamide]
Cortisol cell secretion (% inhibition @ 1 μM) [1]: 27%

CCS(=O)(=O)NC(C)c1cncc(-c2ccc(C#N)c(OC)c2)c1 (single isomer, unassigned) [N-(1-(5-(4-cyano-3-methoxyphenyl)pyridin-3-yl)ethyl)ethanesulfonamide]
inhibition at 1 µM ([1]; NCI-H295R): 38%
IC50 ([2]; Enantiomer 1): 64 nM
IC50 ([2]; Enantiomer 2): 140 nM

CCS(=O)(=O)NC(c1cncc(-c2ccc(C#N)c(OC)c2)c1)C1CC1 (single isomer, unassigned) [N-(5-(4-cyano-3-methoxyphenyl)pyridin-3-yl)(cyclopropyl)methyl)ethanesulfonamide]
inhibition at 1 µM ([1]; NCI-H295R): 25%
IC50 ([2]; Enantiomer 1): 111 nM
IC50 ([2]; Enantiomer 2): 41 nM

CCS(=O)(=O)NC(c1cncc(-c2ccc(C#N)c(OC)c2)c1)C1CC1 (single isomer, unassigned) [N-((5-(4-cyano-3-methoxyphenyl)pyridin-3-yl)(cyclopropyl)met] [N-(5-(4-cyano-3-methoxyphenyl)pyridin-3-yl)(cyclopropyl)methyl)ethanesulfonamide]
Cortisol cell secretion (% inhibition @ 1 μM) [1]: 44%

N#Cc1ccc(-c2cncc(CN3CCCS3(=O)=O)c2)cc1Cl [2-Chloro-4-[5-(1,1-dioxo-isothiazolidin-2-ylmethyl)-pyridin-3-yl]-benzonitrile]
inhibition at 1 µM ([1]; NCI-H295R): 64%
IC50 [2]: 12 nM

CCS(=O)(=O)N[C@@H](c1cncc(-c2ccc(C#N)c(Cl)c2)c1)C1CC1 [(R)-N-((5-(3-chloro-4-cyanophenyl)pyridin-3-yl)(cyclopropyl)methyl)ethanesulfonamide]
inhibition at 1 µM ([1]; NCI-H295R): 29%
IC50 [2]: 56 nM

CCS(=O)(=O)N[C@H](c1cncc(-c2ccc(C#N)c(Cl)c2)c1)C1CC1 [(S)-N-((5-(3-chloro-4-cyanophenyl)pyridin-3-yl)(cyclopropyl)methyl)ethanesulfonamide]
inhibition at 1 µM ([1]; NCI-H295R): 38%
IC50 [2]: 24 nM

CCS(=O)(=O)NCc1cncc(-c2cc3ccc(Cl)nc3n2C)c1 [Ethanesulfonic acid [5-(6-chloro-1-methyl-1H-pyrrolo[2,3-b]pyridin-2-yl)-pyridin-3-ylmethyl]-amide]
inhibition at 1 µM [1]: 40%
IC50 [2]: 8 nM

CCS(=O)(=O)NCc1cncc(-c2cc3cnc(Cl)cc3n2C)c1 [Ethanesulfonic acid [5-(6-chloro-1-methyl-1H-pyrrolo[3,2-c]pyridin-2-yl)-pyridin-3-ylmethyl]-amide]
inhibition at 1 µM [1]: 15%
IC50 [2]: 165 nM

CCS(=O)(=O)N(CCO)C(c1cncc(-c2ccc(C#N)c(Cl)c2)c1)C1CC1 (stereo not drawn) [Ethanesulfonic acid {[5-(3-chloro-4-cyano-phenyl)-pyridin-3-yl]-cyclopropyl-methyl}-(2-hydroxy-ethyl)-amide]
inhibition at 1 µM ([1]; NCI-H295R): 51%
IC50 [2]: 20 nM

CCS(=O)(=O)N(CC(C)C)C(c1cncc(-c2ccc(C#N)c(Cl)c2)c1)C1CC1 (stereo not drawn) [Ethanesulfonic acid {[5-(3-chloro-4-cyano-phenyl)-pyridin-3-yl]-cyclopropyl-methyl}-isobutyl-amide]
inhibition at 1 µM ([1]; NCI-H295R): 35%
IC50 [2]: 98 nM

CCS(=O)(=O)NC1CC1c1cncc(-c2cccc(Cl)c2Cl)c1 (stereo not drawn) [N-(2-(5-(2,3-dichlorophenyl)pyridin-3-yl)cyclopropyl)ethane-sulfonamide]
inhibition at 1 µM ([1]; NCI-H295R): 75%
IC50 [2]: 3 nM

CCS(=O)(=O)NC(C)(C)c1cncc(-c2ccc(C#N)c(Cl)c2)c1 [N-(2-(5-(3-chloro-4-cyanophenyl)pyridin-3-yl)propan-2-yl)ethanesulfonamide]
inhibition at 1 µM ([1]; NCI-H295R): 66%
IC50 [2]: 99 nM

N#Cc1ccc(-c2cncc(NS(=O)(=O)Cc3ccccc3Cl)c2)cc1Cl [N-(5-(3-chloro-4-cyanophenyl)pyridin-3-yl)-1-(2-chlorophenyl)methanesulfonamide]
inhibition at 1 µM ([1]; NCI-H295R): 34%
IC50 [2]: 45 nM
